Experimental data as given in patent US20180346505A1, “MONONUCLEOTIDES HAVING A BIOREVERSIBLE DISULFIDE GROUP” (priority 2014, published 2018).
Read-outs that look alike come from different tables or passages of the source. One block for each molecule: values may come before it.

Experiments:
Huh-7 cells = assay: Toxicity by CytoTox-1 cell proliferation assay (TC50) and selectivity index; assay type: cell-based; settings: TC50 by CytoTox-1 cell proliferation assay over replicon EC50, Huh-7 cells
Procedure: (§1) All the replicon assays were luciferase based in Huh-7 cells, either in stable format (GT1b and GT1a) or by transient transfection by electroporation (chimeric and mutant replicons). For a standard HCV replicon assay, stable or transiently transfected Huh-7 cells were seeded in 96-well plates (5,000 cells/well), cultured in DMEM containing 10% FBS, and incubated at 37° C., 5% CO2. On the following day, test compounds were diluted with assay media and added to the appropriate wells (final DMSO concentration in the cell culture medium was 0.5%). Assay reference positive control was included in each run to ensure assay performance. Cells were incubated at 37° C., 5% CO2 for 72 hours, at which time the cells were still sub-confluent. The antiviral activity was determined by measuring replicon reporter firefly luciferase activity using Bright Glo kit in accordance with the protocol provided by the supplier (Promega). The toxicity of the test compounds was assessed by CytoTox-1 cell proliferation assay (Promega). The half maximal effective concentration (EC50) and the half maximal toxic concentration (TC50) values were calculated using the GraphPad Prism software.

GT1b (Con1) HCV replicon = assay: HCV replicon assay, wild type GT1b (Con1), luciferase based, stable format; assay type: cell-based, hepatitis C virus; settings: Huh-7 cells
Procedure: (§2) The antiviral activity of the test compounds was assessed in the wild type GT1b (Con1), GT1a (H77), and GT1b/2a, GT1b/3a, GT1b/4a and GT1b/5a NS5B chimeric replicons, as well as the NS5B mutant replicons listed in Table 2a and 2b.
as §1

[1] = Nucleoside phosphoester stability in simulated intestinal fluid; assay type: in vitro ADME
Procedure: Test compounds at 2 μM were incubated at 37° C. with simulated intestinal fluid (SIF), which contains 0.68% (w/v) monobasic potassium phosphate and 1% (w/v) pancreatin in ultra-pure water (pH 6.8). Duplicate samples were used. Samples were removed at 0, 15, 30, 60, 120, 360 and 1440 min, immediately mixed with cold acetonitrile containing an internal standard (IS), and stored at −80° C. before analysis. Chlorambucil was used as a positive control. Samples were analyzed by a LC/MS/MS method, and disappearance of test compound was assessed by comparison of peak area ratios of analyte/IS and reported as % test compound remaining at each time point.

[2] = system: GT1b/3a NS5B chimeric replicon; assay: HCV replicon assay, GT1b/3a NS5B chimeric replicon, transient transfection; assay type: cell-based, hepatitis C virus
Procedure: as §2
To generate HCV NS5B chimeric replicons, the GT1 b replicon was used as a backbone with the NS5B gene replaced with the NS5B gene of GT2a, GT3a, GT4a and GT5a derived from clinical isolates. These NS5B genes were cloned into the GT1b backbone and were confirmed by sequencing.
as §1

[3] = Nucleoside phosphoester stability in simulated gastric fluid; assay type: in vitro ADME; settings: simulated gastric fluid pH 1.2, 2 μM, 37° C.
Procedure: Test compounds at 2 μM were incubated at 37° C. with simulated gastric fluid (SGF, 0.2% (w/v) sodium chloride in 0.7% (v/v) hydrochloric acid, deionized water, 0.3% pepsin (w/v), pH 1.2). Duplicate samples were used. Samples were removed at 0, 15, 30, 60, 120, 360 and 1440 min, immediately mixed with cold acetonitrile containing internal standard (IS), and stored at −80° C. before analysis. Omeprazole was used as a positive control. Samples were analyzed by LC/MS/MS method, and disappearance of test compound was assessed by comparison of peak area ratios of analyte/IS and reported as % test compound remaining at each time point.

[4] = Hepatitis C virus, GT1B, Huh-7, 72 h
[5] = read-out: GT3a EC50, GT1b/3a NS5B chimeric replicon, Huh-7 cells, luciferase, 72 hours
[6] = Hepatitis C virus, Huh-7, 72 h, read-out: GT3a EC50, GT1b/3a NS5B chimeric replicon, Huh-7 cells, luciferase, 72 hours

SMILES: CC(C)(C)SSCCCCOP1(=O)OC[C@H]2O[C@@H](n3ccc(=O)[nH]c3=O)[C@](C)(F)[C@@H]2O1 (single isomer, unassigned) [Compound 6B]
Selectivity Index (TC50/EC50) (Huh-7 cells): >14 | EC50 (GT1b (Con1) HCV replicon; 72 hours): 0.73 µM

SMILES: CC(C)(CCO)SSc1ccccc1CCOP1(=O)OC[C@H]2O[C@@H](n3ccc(=O)[nH]c3=O)[C@](C)(F)[C@@H]2O1 (stereo partly shown) [Compound 18A]
Selectivity Index (TC50/EC50) (Huh-7 cells): >200 | EC50 (GT1b (Con1) HCV replicon; [4]): 0.05 µM

SMILES: O=C(O)CCCc1ccc(N(CCCl)CCCl)cc1 [Chlorambucil, reference compound]
% Remaining ([1]; simulated intestinal fluid pH 6.8, 2 μM, 37° C., 0 min): 100.00% | % Remaining ([1]; simulated intestinal fluid pH 6.8, 2 μM, 37° C., 15 min): 81.31% | % Remaining ([1]; simulated intestinal fluid pH 6.8, 2 μM, 37° C., 30 min): 64.39% | % Remaining ([1]; simulated intestinal fluid pH 6.8, 2 μM, 37° C., 60 min): 34.82% | % Remaining ([1]; simulated intestinal fluid pH 6.8, 2 μM, 37° C., 120 min): 5.08% | % Remaining ([1]; simulated intestinal fluid pH 6.8, 2 μM, 37° C., 360 min): 0.00% | % Remaining ([1]; simulated intestinal fluid pH 6.8, 2 μM, 37° C., 1440 min): 0.00%

SMILES: CC(C)(C)SSc1ccccc1CCOP1(=O)OC[C@H]2O[C@@H](n3ccc(N)nc3=O)[C@](C)(F)[C@@H]2O1 (single isomer, unassigned) [Compound 9B]
EC50 [2, 5]: 0.029 µM | Selectivity Index (TC50/EC50) (Huh-7 cells): >500 | EC50 (GT1b (Con1) HCV replicon; 72 hours): 0.013 µM | % Remaining ([1]; simulated gi fluid, 0 h, 2 μM, pH 6.8): 100.00% | % Remaining ([1]; simulated gi fluid, 0.25 h, 2 μM, pH 6.8): 98.51% | % Remaining ([1]; simulated gi fluid, 0.5 h, 2 μM, pH 6.8): 91.63% | % Remaining ([1]; simulated gi fluid, 1 h, 2 μM, pH 6.8): 99.30% | % Remaining ([1]; simulated gi fluid, 2 h, 2 μM, pH 6.8): 97.42% | % Remaining ([1]; simulated gi fluid, 6 h, 2 μM, pH 6.8): 72.51% | % Remaining ([1]; simulated gi fluid, 24 h, 2 μM, pH 6.8): 33.69% | % Remaining ([3]; 0 min): 100.00% | % Remaining ([3]; 15 min): 95.72% | % Remaining ([3]; 30 min): 98.51% | % Remaining ([3]; 60 min): 100.39% | % Remaining ([3]; 120 min): 92.48% | % Remaining ([3]; 360 min): 65.99% | % Remaining ([3]; 1440 min): 21.04%

SMILES: CC(C)(C)SSc1ccccc1CCOP1(=O)OC[C@H]2O[C@@H](n3ccc(N)nc3=O)[C@](C)(O)[C@@H]2O1 (single isomer, unassigned) [Compound 10A]
EC50 [2, 6]: 0.041 µM | Selectivity Index (TC50/EC50) (Huh-7 cells): >500 | EC50 (GT1b (Con1) HCV replicon; [4]): 0.04 µM

SMILES: CC(C)(C)SSc1ccccc1CCOP1(=O)OC[C@H]2O[C@@H](n3cnc4c(N)nc(N)nc43)[C@](C)(O)[C@@H]2O1 (single isomer, unassigned) [Compound 16B]
EC50 [2, 5]: 0.005 µM | Selectivity Index (TC50/EC50) (Huh-7 cells): >250 | EC50 (GT1b (Con1) HCV replicon; 72 hours): 0.04 µM

SMILES: CC(C)(C)SSc1ccccc1CCOP1(=O)OC[C@H]2O[C@@H](n3ccc(=O)[nH]c3=O)[C@](C)(O)[C@@H]2O1 (stereo partly shown) [Compound 8A]
EC50 [2, 6]: 0.006 µM | Selectivity Index (TC50/EC50) (Huh-7 cells): >500 | EC50 (GT1b (Con1) HCV replicon; [4]): 0.01 µM

% Remaining ([3]; 0 min): 100.00% | % Remaining ([3]; 15 min): 79.48% | % Remaining ([3]; 30 min): 66.64% | % Remaining ([3]; 60 min): 34.79% | % Remaining ([3]; 120 min): 33.00% | % Remaining ([3]; 360 min): 6.17% | % Remaining ([3]; 1440 min): 1.24%
SMILES: COc1ccc2[nH]c([S+]([O-])Cc3ncc(C)c(OC)c3C)nc2c1 (stereo not shown) [Omeprazole, reference compound]

SMILES: CC(C)(C)SSc1ccccc1CCOP1(=O)OC[C@H]2O[C@@H](n3ccc(N)nc3=O)[C@](C)(O)[C@@H]2O1 (single isomer, unassigned) [Compound 10B]
EC50 [2, 5]: 0.021 µM | Selectivity Index (TC50/EC50) (Huh-7 cells): >500 | EC50 (GT1b (Con1) HCV replicon; 72 hours): 0.021 µM

SMILES: CC(C)(C)SSc1ccccc1CCOP1(=O)OC[C@H]2O[C@@H](n3ccc(=O)[nH]c3=O)[C@](C)(F)[C@@H]2O1 (stereo partly shown) [Compound 7B]
EC50 [2, 6]: 0.014 µM | Selectivity Index (TC50/EC50) (Huh-7 cells): >500 | EC50 (GT1b (Con1) HCV replicon; [4]): 0.02 µM

SMILES: CC(C)(C)SSCCCCOP1(=O)OC[C@H]2O[C@@H](n3ccc(=O)[nH]c3=O)[C@](C)(F)[C@@H]2O1 (single isomer, unassigned) [Compound 6A]
Selectivity Index (TC50/EC50) (Huh-7 cells): >12 | EC50 (GT1b (Con1) HCV replicon; [4]): 0.84 µM

SMILES: CC(C)(C)SSc1ccccc1CCOP1(=O)OC[C@H]2O[C@@H](n3cnc4c(N)nc(N)nc43)[C@](C)(O)[C@@H]2O1 (single isomer, unassigned) [Compound 16A]
EC50 [2, 6]: 0.006 µM | Selectivity Index (TC50/EC50) (Huh-7 cells): >500 | EC50 (GT1b (Con1) HCV replicon; [4]): 0.02 µM
